Patent US20090227619A1, “Harmine derivatives, intermediates used in their preparations, preparation processes and use therefo” (priority 2003, published 2009)
Read-outs that look alike come from different tables or passages of the source.

Assays:
Lewis lung cancer = conditions: for Body weight of the animals, end, First time / Body weight of the animals, end, Second time: ip × 10qd;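 as to all read-outs here: mice implanted subcutaneously in the axilla with Lewis lung tumor cells, treated starting the following day, killed roughly three weeks after implantation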
NIH3T3 = test: In vitro cytotoxicity, IC50 by MTT method, NIH3T3; format: cell-based
Summary of the method: (§1)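 Cells in RPMI1640 with 10% FBS at 37° C, 5% CO2 were seeded at 10^5/ml and exposed to a compound concentration gradient for 48 h, at least three replicates, solvent controls.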

Kunming mice = conditions: summary Table 34, compounds marked *, results [153] of the previous tests; in mg/kg; cited from earlier work
PLA-801 = test: In vitro cytotoxicity, IC50 by MTT method, PLA-801; format: cell-based
Summary of the method: as §1

Hela = test: In vitro cytotoxicity, IC50 by MTT method, Hela; format: cell-based
Summary of the method: as §1

S180 sarcoma = conditions: for Body weight of the animals, beginning, First time / Body weight of the animals, end, First time / Inhibition rate, First time / Weight of the tumor X ± SD, First time / Body weight of the animals, beginning, Second time / Body weight of the animals, end, Second time / Inhibition rate, Second time: ip × 10qd
HepG2 = test: In vitro cytotoxicity, IC50 by MTT method, HepG2; format: cell-based, human
Summary of the method: as §1

CT-DNA [1] = test: DNA thermal denaturation, determination of ΔTm; format: binding; conditions: 20 uM compound, Tm of CT-DNA alone 61° C.
Summary of the method: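 CT-DNA at 15 ug/ml in PE buffer (1 mM Na2HPO4, 0.1 mM EDTA, pH 7.6), heated at 0.5° C./min from 25 to 95° C. Tm taken as hyperchromic transition mid-point; ΔTm = Tm of drug-DNA complex minus Tm of DNA alone, mean of three runs.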

Bel-7402 = test: In vitro cytotoxicity, IC50 by MTT method, Bel-7402; format: cell-based
Summary of the method: as §1

Lovo = test: In vitro cytotoxicity, IC50 by MTT method, Lovo; format: cell-based
Summary of the method: as §1

BGC-823 = test: In vitro cytotoxicity, IC50 by MTT method, BGC-823; format: cell-based
Summary of the method: as §1

HepG2 cells = test: FCM analysis of apoptosis of HepG2 cells; format: cell-based, human; conditions: FIG. 6
CT-DNA [2] = test: UV absorption spectrum method with CT-DNA; format: binding; conditions: CT-DNA 40 ug/ml, compound 20 uM, 37° C. for 2 h, OD at 260 nm
[3] = comparison table 43, in vivo, Lewis lung cancer
[4] = Mus musculus, NIH3T3, MTT, read-out: IC50
[5] = Homo sapiens, Hela, MTT, read-out: IC50
[6] = comparison table 43, in vivo, S180 sarcoma
[7] = Homo sapiens, HepG2, MTT, read-out: IC50
[8] = Homo sapiens, Bel-7402, BeI7402, MTT, read-out: IC50
[9] = Homo sapiens, Lovo, MTT, read-out: IC50
[10] = Homo sapiens, BGC-823, BGC823, MTT, read-out: IC50
[11] = PLA-801 cell strain, read-out: IC50 PLA-801
[12] = Lewis lung cancer, Dosage 50 (mg/ml)
[13] = Lewis lung cancer, Dosage 50, ip × 10qd
[14] = Lewis lung cancer, Dosage 100 (mg/ml)
[15] = Lewis lung cancer, Dosage 100, ip × 10qd
[16] = S180 sarcoma, Dosage 50 (mg/ml)
[17] = S180 sarcoma, Dosage 100 (mg/ml)
[18] = Mus musculus, NIH3T3 cell strain, read-out: IC50 NIH3T3
[19] = Homo sapiens, Hela cell strain, read-out: IC50 Hela
[20] = Homo sapiens, HepG2 cell strain, read-out: IC50 HepG2
[21] = Homo sapiens, Bel-7402, Bel7402 cell strain, read-out: IC50 Bel7402
[22] = Homo sapiens, Lovo cell strain, read-out: IC50 Lovo
[23] = Homo sapiens, BGC-823, BGC823 cell strain, read-out: IC50 BGC823

Structure (SMILES): COc1ccc2c3ccnc(C)c3n(C)c2c1 [Compound 2, 7-methoxyl-1,9-dimethyl-β-carboline]
- Inhibition rate (%) Lewis cancer (Lewis lung cancer; [3]): 38.1%
- IC50 (NIH3T3; [4]): 40 µM
- LD50 (Kunming mice): 28.92
- IC50 (PLA-801; PLA-801, MTT, read-out: IC50): 30 µM
- IC50 (Hela; [5]): 10 µM
- Inhibition rate (%) S180 sarcomata (S180 sarcoma; [6]): 32.1%
- IC50 (HepG2; [7]): 20 µM
- ΔTm (CT-DNA [1]; CT-DNA thermal denaturation): 5.3 °C
- IC50 (Bel-7402; [8]): 60 µM
- IC50 (Lovo; [9]): 40 µM
- IC50 (BGC-823; [10]): 50 µM

Structure (SMILES): CCOC(=O)c1cc2c3ccccc3n(Cc3c(F)c(F)c(F)c(F)c3F)c2c(C)n1 [Compound 60, ethyl 9-(2′,3′,4′,5′,6′-pentafluoro)benzyl-1-methyl-β-carboline-3-carboxylate]
- IC50 (NIH3T3; NIH3T3 cell strain, read-out: IC50 NIH3T3): 40 µM
- IC50 (PLA-801; [11]): 50 µM
- IC50 (Hela; Hela cell strain, read-out: IC50 Hela): 20 µM
- IC50 (HepG2; HepG2 cell strain, read-out: IC50 HepG2): 30 µM
- IC50 (Bel-7402; Bel7402 cell strain, read-out: IC50 Bel7402): 100 µM
- IC50 (Lovo; Lovo cell strain, read-out: IC50 Lovo): 40 µM
- IC50 (BGC-823; BGC823 cell strain, read-out: IC50 BGC823): 4 µM
- Apoptosis of HepG2 cells (FCM analysis) (HepG2 cells): apoptosis of HepG2 cells induced

Structure (SMILES): O=C(O)c1cc2c(cn1)[nH]c1ccccc12 [Compound 17, β-carboline-3-carboxylic acid]
- Body weight of the animals, end, First time (Lewis lung cancer; [12]): 25.4 g
- Body weight of the animals, end, Second time (Lewis lung cancer; [12]): 25.4 g
- Body weight of the animals, beginning, First time (Lewis lung cancer; [13]): 19.2 g
- Inhibition rate, First time (Lewis lung cancer; [13]): 31.40%
- Weight of the tumor X ± SD, First time (Lewis lung cancer; [13]): 2.01 ± 0.28 g
- Body weight of the animals, beginning, Second time (Lewis lung cancer; [13]): 20.2 g
- Inhibition rate, Second time (Lewis lung cancer; [13]): 27.98%
- Weight of the tumor X ± SD, Second time (Lewis lung cancer; [13]): 1.75 ± 0.09 g
- Body weight of the animals, end, First time (Lewis lung cancer; [14]): 24.8 g
- Body weight of the animals, end, Second time (Lewis lung cancer; [14]): 24.9 g
- Body weight of the animals, beginning, First time (Lewis lung cancer; [15]): 19.0 g
- Inhibition rate, First time (Lewis lung cancer; [15]): 37.20%
- Weight of the tumor X ± SD, First time (Lewis lung cancer; [15]): 1.84 ± 0.48 g
- Body weight of the animals, beginning, Second time (Lewis lung cancer; [15]): 20.4 g
- Inhibition rate, Second time (Lewis lung cancer; [15]): 37.86%
- Weight of the tumor X ± SD, Second time (Lewis lung cancer; [15]): 1.51 ± 0.09 g
- Inhibition rate (%) Lewis cancer (Lewis lung cancer; [3]): 33.4%
- IC50 (NIH3T3; [4]): 60 µM
- LD50 (Kunming mice): 135.22
- IC50 (PLA-801; PLA-801, MTT, read-out: IC50): 300 µM
- IC50 (Hela; [5]): 220 µM
- Body weight of the animals, beginning, First time (S180 sarcoma; [16]): 19.2 g
- Body weight of the animals, end, First time (S180 sarcoma; [16]): 24.7 g
- Inhibition rate, First time (S180 sarcoma; [16]): 23.97%
- Weight of the tumor X ± SD, First time (S180 sarcoma; [16]): 2.03 ± 0.24 g
- Body weight of the animals, beginning, Second time (S180 sarcoma; [16]): 18.5 g
- Body weight of the animals, end, Second time (S180 sarcoma; [16]): 25.9 g
- Inhibition rate, Second time (S180 sarcoma; [16]): 25.19%
- Weight of the tumor X ± SD, Second time (S180 sarcoma; S180 sarcoma, Dosage 50, ip × 10qd): 2.02 ± 0.21 g
- Body weight of the animals, beginning, First time (S180 sarcoma; [17]): 19.3 g
- Body weight of the animals, end, First time (S180 sarcoma; [17]): 24.2 g
- Inhibition rate, First time (S180 sarcoma; [17]): 35.21%
- Weight of the tumor X ± SD, First time (S180 sarcoma; [17]): 1.73 ± 0.16 g
- Body weight of the animals, beginning, Second time (S180 sarcoma; [17]): 18.6 g
- Body weight of the animals, end, Second time (S180 sarcoma; [17]): 25.3 g
- Inhibition rate, Second time (S180 sarcoma; [17]): 32.96%
- Weight of the tumor X ± SD, Second time (S180 sarcoma; S180 sarcoma, Dosage 100, ip × 10qd): 1.81 ± 0.20 g
- Inhibition rate (%) S180 sarcomata (S180 sarcoma; [6]): 32.2%
- IC50 (HepG2; [7]): 280 µM
- IC50 (Bel-7402; [8]): 230 µM
- IC50 (Lovo; [9]): 170 µM
- IC50 (BGC-823; [10]): 280 µM

Structure (SMILES): CCn1c2cc(OC)ccc2c2ccnc(C)c21 [Compound 3, 7-methoxyl-9-ethyl-1-methyl-β-carboline]
- Influence on the UV absorption of DNA (CT-DNA [2]): reduce the UV absorption of DNA
- Inhibition rate (%) Lewis cancer (Lewis lung cancer; mouse, in vivo): 42.0%
- IC50 (NIH3T3; Mus musculus, NIH3T3): 70 µM
- LD50 (Kunming mice): 24.25
- IC50 (PLA-801): 20 µM
- IC50 (Hela; Homo sapiens, HeLa): 20 µM
- Inhibition rate (%) S180 sarcomata (S180 sarcoma; mouse, in vivo): 37.6%
- IC50 (HepG2; Homo sapiens, HepG2): 10 µM
- ΔTm (CT-DNA [1]; CT-DNA thermal denaturation): 7.3 °C
- IC50 (Bel-7402; Homo sapiens, Bel-7402): 30 µM
- IC50 (Lovo; Homo sapiens, LoVo): 170 µM
- IC50 (BGC-823; Homo sapiens, BGC-823): 50 µM

Structure (SMILES): COc1ccc2c3ccnc(C)c3n(Cc3ccccc3)c2c1 [Compound 6, 9-benzyl-7-methoxy-1-methyl-β-carboline]
- Influence on the UV absorption of DNA (CT-DNA [2]): reduce the UV absorption of DNA
- Inhibition rate (%) Lewis cancer (Lewis lung cancer; [3]): 46.9%
- IC50 (NIH3T3; [4]): 50 µM
- LD50 (Kunming mice): 147.82
- IC50 (PLA-801; PLA-801, MTT, read-out: IC50): 60 µM
- IC50 (Hela; [5]): 270 µM
- Inhibition rate (%) S180 sarcomata (S180 sarcoma; [6]): 45.2%
- IC50 (HepG2; [7]): 90 µM
- ΔTm (CT-DNA [1]; CT-DNA 15 ug/ml, PE buffer pH 7.6): 10.3 °C
- ΔTm (CT-DNA [1]; CT-DNA thermal denaturation): 10.3 °C
- IC50 (Bel-7402; [8]): 60 µM
- IC50 (Lovo; [9]): 50 µM
- IC50 (BGC-823; [10]): 100 µM

Structure (SMILES): CCn1c2ccccc2c2cc(C(=O)OC)ncc21 [Compound 27, methyl 9-ethyl-β-carboline-3-carboxylate]
- Anti-tumor activity compared with harmine (compound 1) (Lewis lung cancer; Lewis lung cancer in mice, among 22 compounds tested): a little worse than or equivalent to that of harmines
- Inhibition rate (%) Lewis cancer (Lewis lung cancer; [3]): 30.5%
- IC50 (NIH3T3; [18]): 130 µM
- LD50 (Kunming mice): 95.06
- IC50 (PLA-801; [11]): 290 µM
- IC50 (Hela; [19]): 210 µM
- Inhibition rate (%) S180 sarcomata (S180 sarcoma; [6]): 29.0%
- IC50 (HepG2; [20]): 160 µM
- IC50 (Bel-7402; [21]): 530 µM
- IC50 (Lovo; [22]): 110 µM
- IC50 (BGC-823; [23]): 250 µM

Structure (SMILES): COC(=O)c1cc2c3ccccc3n(C)c2cn1 [Compound 26, methyl 9-methyl-β-carboline-3-carboxylate]
- Inhibition rate (%) Lewis cancer (Lewis lung cancer; [3]): 35.0%
- IC50 (NIH3T3; [18]): 90 µM
- LD50 (Kunming mice): 70.61
- IC50 (PLA-801; [11]): 120 µM
- IC50 (Hela; [19]): 180 µM
- Inhibition rate (%) S180 sarcomata (S180 sarcoma; [6]): 31.1%
- IC50 (HepG2; [20]): 120 µM
- IC50 (Bel-7402; [21]): 190 µM
- IC50 (Lovo; [22]): 180 µM
- IC50 (BGC-823; [23]): 180 µM

Structure (SMILES): CCCCn1c2cc(OC)ccc2c2ccnc(C)c21 [Compound 4, 7-methoxyl-9-n-butyl-1-methyl-β-carboline]
- Influence on the UV absorption of DNA (CT-DNA [2]): reduce the UV absorption of DNA
- Inhibition rate (%) Lewis cancer (Lewis lung cancer; [3]): 44.0%
- IC50 (NIH3T3; [4]): 40 µM
- LD50 (Kunming mice): 26.45
- IC50 (PLA-801; PLA-801, MTT, read-out: IC50): 110 µM
- IC50 (Hela; [5]): 30 µM
- Inhibition rate (%) S180 sarcomata (S180 sarcoma; [6]): 40.9%
- IC50 (HepG2; [7]): 60 µM
- ΔTm (CT-DNA [1]; CT-DNA thermal denaturation): 6.7 °C
- IC50 (Bel-7402; [8]): 60 µM
- IC50 (Lovo; [9]): 90 µM
- IC50 (BGC-823; [10]): 70 µM
